# Measured values from US11773127B2, “Compounds and methods for treating bacterial infections” (Washington University, priority 2017, dated 2023).
# Read-outs that look alike come from different tables or passages of the source.
# Biological target: T1, FmlHLD (Escherichia coli, UniProt P77588)
# T1 construct: 6xHis (C); made in house; host or cells: E. coli C600, periplasm, pTRC99a
# Experiment: biochemical
# Type: binding, E. coli
# Conditions: for % Inhibition at [μM] [100]: compound at 100 μM; for inhibitory potency against FmlH, in words: ELISA-based competition assay; for PI100 (percent inhibition): galactoside at 100 μM, 100 µM
# Experimental: Thereafter, wells were incubated with 200 μl blocking buffer (PBS+1% BSA) for 2 hours at 23° C., followed by incubation with 100 μl biotinylated FmlHLD diluted in blocking buffer to 20 μg/ml in the presence or absence of the tested compounds for 1 hr at 23° C. After washing 3× with PBS+0.05% TWEEN-20, 100 μl Streptavidin-HRP conjugate (BD Biosciences; 1:2000 dilution in blocking buffer) was added to each well for 1 hr at 23° C. After a final round of washing, plates were developed with 100 μl Tetramethylbenzidine (TMB, BD Biosciences) substrate, quenched within 1-2 min with 50 μl […], and absorbance measured at 450 nm.
# Select top hit compounds and few low-scoring analogs from the virtual screening, as well as synthetic galactosides, were tested in the ELISA-based competition assay for their ability to inhibit binding of FmlHLD to ds-BSM. The ELISA assay was performed using the protocol described in Example 18. […] All compounds were tested at 100 μM; a subset was tested at 10 μM; and the strongest subset was additionally tested at 1 μM. […] Percent inhibition (PI) values are reported as the mean with standard error of the mean for galactosides tested at 100 μM (PI100), 10 μM (PI10), and 1 μM (PI1) in the ELISA-based competition assay. […] The “thio” designation indicates a sulfur linkage between the sugar and the aglycone group, the “phospho” designation indicates a phosphate group attached the C6-hydroxyl group on the sugar, and the “uro” designation indicates galacturonide as the sugar.
# The ELISA assay was performed using the protocol described in Example 18. All compounds were tested at 1 μM and a subset was additionally tested at 100 nM. Average percent inhibition (PI) values are reported for compounds tested at 1 μM (PI1) and 100 nM (PI0.1).
# Briefly, 1 μg bovine submaxillary mucin (Sigma) in 100 uL PBS were incubated with Immulon 4HBX 96-well plates overnight prior to treatment with 1 mU Arthrobacter ureafaciens sialidase for 1 hour at 37° C. to remove terminal sialic acid sugars. Wells were then blocked with 200 μL PBS+1% BSA for 2 hours at room temperature. Biotinylated FmlH^LD was diluted to 20 μg/mL in blocking buffer and incubated in the presence or absence of compounds serially diluted 2× down eight rows for 1 hour at room temperature. Wells were washed three times with PBS 0.05% TWEEN-20 then incubated with 100 μL of streptavidin-HRP conjugate (BD Biosciences; 1:2,000 dilution in blocking buffer) for one hour. After three additional PBS+0.05% TWEEN washes, plates were developed with 100 μL of tetramethylbenzidine (BD Biosciences) substrate and quenched with 50 μL of 1 M H2SO4. Total bound portion concentration was measured by the absorbance at 450 nm. IC50s were determined using the Graphpad Prism software.
# The compounds synthesized herein were tested in the ELISA-based competition assay for their ability to inhibit binding of FmlHLD to ds-BSM. The ELISA assay was performed using the protocol described in Example 18. Compounds were tested at […], 1 μM, and 100 nM. as indicated on the table. […] ND means the corresponding value was not determined for this summary (but may be available elsewhere in the Examples).
# [1] = inhibition of FmlHLD binding to ds-BSM
# [2] = read-out: % Inhibition at [μM] [100], compound at 100 μM, inhibition of FmlHLD binding to ds-BSM
# [3] = IC50, inhibition of FmlHLD binding to ds-BSM
# [4] = IC50 (μM), Table 5, Gal and GalNAc inhibition of FmlH
# [5] = read-out: % Inhibition at [μM] [0.1], compound at 0.1 μM (100 nM), inhibition of FmlHLD binding to ds-BSM
# [6] = read-out: % Inhibition at [μM] [1], compound at 1 μM, inhibition of FmlHLD binding to ds-BSM
# [7] = read-out: PI (0.1) (average percent inhibition), compound at 100 nM, Table 4
# [8] = read-out: PI(1) (average percent inhibition), compound at 1 μM, Table 4
# [9] = mean with standard error of the mean
# [10] = read-out: PI10 (percent inhibition), galactoside at 10 μM, mean with standard error of the mean
# [11] = read-out: PI100 (percent inhibition), galactoside at 100 μM, mean with standard error of the mean
# T1 sequence (P77588 25-182): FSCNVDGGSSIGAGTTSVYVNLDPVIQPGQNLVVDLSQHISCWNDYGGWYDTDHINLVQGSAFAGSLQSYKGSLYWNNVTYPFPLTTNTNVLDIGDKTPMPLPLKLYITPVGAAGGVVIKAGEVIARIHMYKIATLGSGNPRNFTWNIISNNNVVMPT
smiles,measurement,setting,value
"CC(=O)N[C@H]1[C@@H](Oc2ccc([N+](=O)[O-])cc2)O[C@H](CO)[C@H](O)[C@@H]1O[C@@H]1O[C@H](CO)[C@H](O)[C@H](O)[C@H]1O [Gal-b1-3-PNPGalNAc, reference compound]",% Inhibition at [μM] [100],[1],15.28%
OC[C@H]1O[C@@H](Oc2cccc3ccncc23)[C@H](O)[C@@H](O)[C@H]1O [EXW020a],inhibition at 100 µM,[2],15.2%
CC(=O)N[C@H]1[C@H](Oc2cccc(C)c2-c2cccc(NS(=O)(=O)C3CC3)c2)O[C@H](CO)[C@H](O)[C@@H]1O [AM2151],IC50,[3],0.12 µM
"COc1ccc(OS(C)(=O)=O)cc1-c1ccccc1O[C@@H]1O[C@H](CO)[C@H](O)[C@H](O)[C@H]1NC(C)=O [AM2077, 2′-(((2S,3R,4R,5R,6R)-3-acetamido-4,5-dihydroxy-6-(hydroxymethyl)tetrahydro-2H-pyran-2-yl)oxy)-6-methoxy-[1,1′-biphenyl]-3-yl methanesulfonate]","inhibitory potency against FmlH, in words",,equal or slightly reduced potency
same,IC50,[4],3.72 µM
same,inhibition at 0.1 µM,[5],2.5%
same,inhibition at 1 µM,[6],0%
same,inhibition at 0.1 µM,[7],2.5%
same,inhibition at 1 µM,[8],0%
"COc1ccc(C(=O)O)cc1-c1ccccc1O[C@@H]1O[C@H](CO)[C@H](O)[C@H](O)[C@H]1NC(C)=O [Compound 2051, 2′-(((2S,3R,4R,5R,6R)-3-acetamido-4,5-dihydroxy-6-(hydroxymethyl)tetrahydro-2H-pyran-2-yl)oxy)-6-methoxy-[1,1′-biphenyl]-3-carboxylic acid]","inhibitory potency against FmlH, in words",,weakest activity
same,IC50,[4],3.87 µM
same,drop in activity relative to 29β-NAc,IC50 ratio,6 fold
same,inhibition at 0.1 µM,[7],0%
same,inhibition at 1 µM,[8],15.9%
"O=[N+]([O-])c1ccccc1O[C@@H]1O[C@H](COP(=O)(O)O)[C@H](O)[C@H](O)[C@H]1O [ONPG-6P, reference compound]",% Inhibition at [μM] [100],[1],1.31%
"CC(=O)N[C@H]1[C@H](Oc2cccc3cc4ccccc4nc23)O[C@H](CO)[C@H](O)[C@@H]1O [AM2003, N-((2S,3R,4R,5R,6R)-2-(acridin-4-yloxy)-4,5-dihydroxy-6-(hydroxymethyl)tetrahydro-2H-pyran-3-yl)acetamide]",inhibition at 1 µM,[6],15.4%
same,inhibition at 1 µM,[8],15.4%
"OC[C@H]1O[C@@H](Oc2c[nH]c3cc(Cl)ccc23)[C@H](O)[C@@H](O)[C@H]1O [Salmon Gal, reference compound]",inhibition at 100 µM,[2],41.2%
CC(=O)N[C@H]1[C@H](Oc2ccc3ccccc3c2-c2cccc(NS(C)(=O)=O)c2)O[C@H](CO)[C@H](O)[C@@H]1O [AM2144],IC50,[3],0.18 µM
"COC(=O)Nc1cccc(-c2ccccc2O[C@@H]2O[C@H](CO)[C@H](O)[C@H](O)[C@H]2NC(C)=O)c1 [AM2065, methyl (2′-(((2S,3R,4R,5R,6R)-3-acetamido-4,5-dihydroxy-6-(hydroxymethyl)tetrahydro-2H-pyran-2-yl)oxy)-[1,1′-biphenyl]-3-yl)carbamate]","inhibitory potency against FmlH, in words",,equal or slightly reduced potency
same,IC50,[4],0.63 µM
same,IC50,[3],1.05 µM
same,inhibition at 0.1 µM,[5],0%
same,inhibition at 1 µM,[6],45.3%
same,inhibition at 0.1 µM,[7],0%
same,inhibition at 1 µM,[8],45.3%
"CC(=O)N[C@H]1[C@H](Oc2ccccc2-c2cccc(S(C)(=O)=O)c2)O[C@H](CO)[C@H](O)[C@@H]1O [AM2059, N-((2S,3R,4R,5R,6R)-4,5-dihydroxy-6-(hydroxymethyl)-2-((3′-(methylsulfonyl)-[1,1′-biphenyl]-2-yl)oxy)tetrahydro-2H-pyran-3-yl)acetamide]","inhibitory potency against FmlH, in words",,equal or slightly reduced potency
same,IC50,[4],0.7 µM
same,inhibition at 0.1 µM,[5],0.1%
same,inhibition at 1 µM,[6],23.3%
same,inhibition at 0.1 µM,[7],0.1%
same,inhibition at 1 µM,[8],23.3%
"CC(=O)N[C@H]1[C@H](Oc2cccc3c(C)ccnc23)O[C@H](CO)[C@H](O)[C@@H]1O [AM1192, N-((2S,3R,4R,5R,6R)-4,5-dihydroxy-6-(hydroxymethyl)-2-((4-methylquinolin-8-yl)oxy)tetrahydro-2H-pyran-3-yl)acetamide]",inhibition at 1 µM,[6],16.8%
same,inhibition at 1 µM,[8],16.8%
"Cc1ccccc1O[C@@H]1O[C@H](CO)[C@H](O)[C@H](O)[C@H]1O [Compound 2β, 2-Methylphenyl α/β-D-Galactopyranoside]",PI100 (percent inhibition),[9],87.3 ± 3.7%
same,inhibition at 1 µM,"read-out: PI1 (percent inhibition), galactoside at 1 μM, mean with standard error of the mean",1.8 ± 5.7%
same,inhibition at 10 µM,[10],28.2 ± 1.8%
same,inhibition at 100 µM,[11],87%
"CC(=O)N[C@H]1[C@H](Oc2ccc3cnccc3c2)O[C@H](CO)[C@H](O)[C@@H]1O [AM2007, N-((2S,3R,4R,5R,6R)-4,5-dihydroxy-6-(hydroxymethyl)-2-(isoquinolin-6-yloxy)tetrahydro-2H-pyran-3-yl)acetamide]",inhibition at 1 µM,[6],12.6%
same,inhibition at 1 µM,[8],12.6%
"Cc1ccccc1O[C@H]1O[C@H](CO)[C@H](O)[C@H](O)[C@H]1O [Compound 2α, 2-Methylphenyl α/β-D-Galactopyranoside]",inhibition at 100 µM,[11],30 ± 5.4%
Nc1ccc(O[C@@H]2O[C@H](CO)[C@H](O)[C@H](O)[C@H]2O)cc1 [Compound 10β],PI100 (percent inhibition),[9],65.1 ± 1.4%
same,inhibition at 10 µM,[10],9.8 ± 3.9%
same,inhibition at 100 µM,[11],65%
CC(=O)N[C@H]1[C@H](Oc2cccc(C(F)(F)F)c2-c2cccc(NS(C)(=O)=O)c2)O[C@H](CO)[C@H](O)[C@@H]1O [AM2134],IC50,[3],0.085 µM
"CC(=O)N[C@H]1[C@@H](Oc2ccc([N+](=O)[O-])cc2)O[C@H](CO)[C@H](O)[C@@H]1O [PNP-aGalNAc, reference compound]",% Inhibition at [μM] [10],"compound at 10 μM, inhibition of FmlHLD binding to ds-BSM",6.29%
same,% Inhibition at [μM] [100],[1],82.04%
"CC(=O)N[C@H]1[C@H](Oc2ccccc2-c2cccc(C(F)(F)F)c2)O[C@H](CO)[C@H](O)[C@@H]1O [AM2037, N-((2S,3R,4R,5R,6R)-4,5-dihydroxy-6-(hydroxymethyl)-2-((3′-(trifluoromethyl)-[1,1′-biphenyl]-2-yl)oxy)tetrahydro-2H-pyran-3-yl)acetamide]","inhibitory potency against FmlH, in words",,equal or slightly reduced potency
same,IC50,[4],1.51 µM
same,inhibition at 1 µM,[6],15.7%
same,inhibition at 1 µM,[8],15.7%
"CC(=O)N[C@H]1[C@H](Oc2cccc3ccc(C)nc23)O[C@H](CO)[C@H](O)[C@@H]1O [AM1179, N-((2S,3R,4R,5R,6R)-4,5-dihydroxy-6-(hydroxymethyl)-2-((2-methylquinolin-8-yl)oxy)tetrahydro-2H-pyran-3-yl)acetamide]",inhibition at 1 µM,[6],25.2%
same,inhibition at 1 µM,[8],25.2%
CC(=O)N[C@H]1[C@H](Oc2cccc(C(=O)O)c2-c2cccc(NS(C)(=O)=O)c2)O[C@H](CO)[C@H](O)[C@@H]1O [AM2148],IC50,[3],0.13 µM
Cc1ccc(O[C@@H]2O[C@H](CO)[C@H](O)[C@H](O)[C@H]2O)cc1 [Compound 153a],inhibition at 1 µM,[6],4.59%
same,inhibition at 10 µM,"read-out: % Inhibition at [μM] [10], compound at 10 μM, inhibition of FmlHLD binding to ds-BSM",16.5%
same,inhibition at 100 µM,[2],85.8%
"COc1cccc(O[C@@H]2OC(CO)[C@H](O)[C@H](O)[C@@H]2NC(C)=O)c1-c1cccc(NS(C)(=O)=O)c1 (stereo partly drawn) [Compound 3083, N-((2S,3S,4R,5R)-4,5-dihydroxy-6-(hydroxymethyl)-2-((6-methoxy-3′-(methylsulfonamido)-[1,1′-biphenyl]-2-yl)oxy)tetrahydro-2H-pyran-3-yl)acetamide]",IC50,"IC50 (μM), Table 6, sulfonamides 3078-3090",0.15 µM
